The text below walks through data of patent US7199132B2, “Tropane analogs and methods for inhibition of monoamine transport” (Organix, Inc., priority 2001, dated 2007).

Where two headings read alike, the source gives them in different places.

One data set addresses T1, dopamine transporter (Macaca fascicularis, UniProt Q9GJT6).
T1 construct: The caudate-putamen was dissected from coronal slices and yielded 1.4±0.4 g tissue; Membranes were prepared as described previously; from tissue; host or cells: caudate-putamen membranes of cynomolgus or rhesus monkey brain
As to the kind of experiment: Dopamine transporter assay: inhibition of {3H}WIN 35,428 binding in caudate-putamen membranes. Also on record: species or system rhesus or cynomolgus monkey. Conditions: for SERT/DAT: selectivity ratio IC50 SERT / IC50 DAT; for IC50: inhibition of {3H}WIN 35,428 binding, mean of 2 or more independent experiments in triplicate.

For another data set, the target named is T2, serotonin transporter (Macaca mulatta, UniProt Q9MYX0).
T2 construct: The serotonin transporter was assayed in caudate-putamen membranes using conditions similar to those for the dopamine transporter; from tissue; host or cells: caudate-putamen membranes of cynomolgus or rhesus monkey brain
T2 sequence (Q9MYX0 whole entry): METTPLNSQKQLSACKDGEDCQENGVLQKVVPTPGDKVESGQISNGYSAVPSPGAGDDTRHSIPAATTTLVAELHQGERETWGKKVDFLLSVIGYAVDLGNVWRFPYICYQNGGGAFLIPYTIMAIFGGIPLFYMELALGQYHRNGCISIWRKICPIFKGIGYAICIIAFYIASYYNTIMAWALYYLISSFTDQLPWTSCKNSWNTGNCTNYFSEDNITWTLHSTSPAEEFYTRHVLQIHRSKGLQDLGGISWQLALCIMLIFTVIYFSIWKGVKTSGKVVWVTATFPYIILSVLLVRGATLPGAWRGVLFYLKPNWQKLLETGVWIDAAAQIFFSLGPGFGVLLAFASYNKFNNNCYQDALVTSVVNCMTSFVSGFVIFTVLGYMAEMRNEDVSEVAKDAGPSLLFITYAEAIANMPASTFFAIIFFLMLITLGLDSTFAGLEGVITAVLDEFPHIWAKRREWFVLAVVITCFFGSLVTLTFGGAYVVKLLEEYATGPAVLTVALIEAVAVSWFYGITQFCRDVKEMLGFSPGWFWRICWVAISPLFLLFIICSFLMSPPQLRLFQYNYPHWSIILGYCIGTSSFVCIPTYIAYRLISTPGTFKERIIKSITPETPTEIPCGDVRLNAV
As to the kind of experiment: Serotonin transporter assay: inhibition of {3H}citalopram binding in caudate-putamen membranes. Also on record: species or system rhesus or cynomolgus monkey. The conditions noted are these: IC50 (nM) SERT, monkey caudate-putamen, mean of 2 or more independent experiments in triplicate.

Where [1] appears, read: IC50 (nM) DAT, monkey caudate-putamen.

T1 sequence (Q9GJT6 whole entry): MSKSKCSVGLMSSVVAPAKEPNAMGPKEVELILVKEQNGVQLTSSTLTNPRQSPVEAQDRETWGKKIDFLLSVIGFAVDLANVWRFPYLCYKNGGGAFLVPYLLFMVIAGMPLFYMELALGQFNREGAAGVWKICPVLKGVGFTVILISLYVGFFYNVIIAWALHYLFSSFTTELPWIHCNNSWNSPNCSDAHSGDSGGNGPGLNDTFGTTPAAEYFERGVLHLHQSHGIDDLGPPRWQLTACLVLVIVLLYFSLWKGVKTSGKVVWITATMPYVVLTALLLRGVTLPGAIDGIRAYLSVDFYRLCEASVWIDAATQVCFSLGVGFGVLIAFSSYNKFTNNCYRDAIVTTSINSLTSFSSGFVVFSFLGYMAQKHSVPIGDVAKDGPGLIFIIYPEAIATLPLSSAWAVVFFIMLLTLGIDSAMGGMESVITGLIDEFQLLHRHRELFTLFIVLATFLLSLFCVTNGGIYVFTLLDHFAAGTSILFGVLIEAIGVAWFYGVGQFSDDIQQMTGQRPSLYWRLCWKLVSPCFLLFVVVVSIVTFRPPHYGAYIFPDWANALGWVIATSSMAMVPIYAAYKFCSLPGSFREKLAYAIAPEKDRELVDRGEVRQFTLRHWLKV

The IC50 is the concentration needed to halve the response being measured. The melting point is the temperature, or range, at which the solid turns liquid. For the compound `COC(=O)C1=C(c2ccc(Cl)c(Cl)c2)C[C@@H]2[C@@H](O)C[C@H]1N2C` (racemic) [Compound 7a, 2-Carbomethoxy-3-(3,4-dichlorophenyl)-6β-hydroxy-8-methyl-8-azabicyclo{3.2.1}oct-2-ene], the melting point is 94 to 96 °C. In addition, the SERT/DAT at dopamine transporter came to 60. On serotonin transporter, this compound registered an IC50 of 3320 nM.

The compound `COC(=O)C1=C(c2ccc(Cl)c(Cl)c2)C[C@@H]2C[C@@H](O)[C@H]1N2C` (racemic) [Compound 8a, 2-Carbomethoxy-3-(3,4-dichlorophenyl)-7β-hydroxy-8-methyl-8-azabicyclo{3.2.1}oct-2-ene] had a melting point of 130.4 to 132.4 °C. The concentration for half-maximal inhibition (IC50) on serotonin transporter is above 6000 nM.

`COC(=O)C1=C(c2ccc(F)cc2)C[C@@H]2C[C@@H](O)[C@H]1N2C` (racemic) [Compound 8c, 2-Carbomethoxy-3-(4-fluorophenyl)-7β-hydroxy-8-methyl-8-azabicyclo{3.2.1}oct-2-ene]: the SERT/DAT at dopamine transporter is reported as 1. Also, on serotonin transporter, the IC50 was above 10000 nM.

In the case of `COC(=O)[C@@H]1[C@H]2[C@H](O)C[C@@H](C[C@@H]1c1ccccc1)N2C` (racemic) [Compound 15d, 2β-Carbomethoxy-3β-phenyl-7β-hydroxy-8-methyl-8-azabicyclo{3.2.1}octane], the melting point was 165.8 to 167.8 °C. On serotonin transporter, this compound yielded an IC50 above 10000 nM.

As to `COC(=O)C1=C(c2ccccc2)C[C@@H]2CC[C@H]1N2C` (relative stereo) [Compound 6d, reference compound], the SERT/DAT on dopamine transporter is listed as 11. On serotonin transporter, this compound returned an IC50 of 28600 nM.

Regarding `COC(=O)[C@H]1[C@@H](c2ccccc2)C[C@@H]2CC[C@H]1N2C` (relative stereo) [Compound 13d, reference compound], on dopamine transporter (setting [1]), the IC50 worked out at 65 nM.

As to `COC(=O)[C@@H]1[C@H]2CC[C@@H](C[C@H]1c1ccc3ccccc3c1)N2C` (relative stereo) [Compound 16b, reference compound], the IC50 at dopamine transporter (setting [1]) came out at 0.57 nM. Besides, the SERT/DAT on dopamine transporter is 10.

For `COC(=O)[C@@H]1[C@H]2CC[C@@H](C[C@H]1c1ccc(F)cc1)N2C` (relative stereo) [Compound 16c, reference compound], the SERT/DAT on dopamine transporter is given as 63.

`COC(=O)[C@@H]1[C@H]2C[C@H](O)[C@@H](C[C@H]1c1ccc(Cl)c(Cl)c1)N2C` (relative stereo) [Compound 17a, 2β-Carbomethoxy-3α-(3,4-dichlorophenyl)-6β-hydroxy-8-methyl-8-azabicyclo{3.2.1}octane] registered a melting point of 129.1 to 131.1 °C. Moreover, at dopamine transporter, the SERT/DAT amounted to 238.

`COC(=O)[C@@H]1[C@H]2C[C@H](O)[C@@H](C[C@H]1c1ccc(F)cc1)N2C` (relative stereo) [Compound 17c, 2β-Carbomethoxy-3α-(4-fluorophenyl)-6β-hydroxy-8-methyl-8-azabicyclo{3.2.1}octane]: the melting point lay within 148 to 150 °C. Besides, the SERT/DAT at dopamine transporter amounted to 8.

The compound `COC(=O)[C@@H]1[C@H]2C[C@H](O)[C@@H](C[C@H]1c1ccccc1)N2C` (relative stereo) [Compound 17d, 2β-Carbomethoxy-3α-phenyl-6β-hydroxy-8-methyl-8-azabicyclo{3.2.1}octane] displayed a melting point of 138 to 140 °C. The SERT/DAT at dopamine transporter is listed as above 3.

In turn, `COC(=O)[C@@H]1[C@H]2[C@H](O)C[C@@H](C[C@H]1c1ccc(Cl)c(Cl)c1)N2C` (relative stereo) [Compound 18a, 2β-Carbomethoxy-3α-(3,4-dichlorophenyl)-7β-hydroxy-8-methyl-8-azabicyclo{3.2.1}octane] had a melting point of 148.5 to 150 °C.

Compound `COC(=O)[C@@H]1[C@H]2[C@H](O)C[C@@H](C[C@H]1c1ccccc1)N2C` (relative stereo) [Compound 18d, 2β-Carbomethoxy-3α-phenyl-7β-hydroxy-8-methyl-8-azabicyclo{3.2.1}octane] had a melting point of 165 to 167 °C.

`COC(=O)[C@H]1[C@@H](c2ccc(Cl)c(Cl)c2)C[C@@H]2CC(=O)[C@H]1N2C` (relative stereo) [Compound 19, 2β-Carbomethoxy-3β-(3,4-dichlorophenyl)-8-methyl-8-azabicyclo{3.2.1}oct-7-one] had a melting point of 84.4 to 86.4 °C. Further, the IC50 at serotonin transporter worked out at 290 nM.

Take `COC(=O)[C@@H]1[C@H]2C[C@@H](O)[C@@H](C[C@H]1c1ccc(Cl)c(Cl)c1)N2C` (relative stereo) [Compound 30a, 2β-Carbomethoxy-3α-(3,4-dichlorophenyl)-6α-hydroxy-8-methyl-8-azabicyclo{3.2.1}octane]: the melting point lay in the range of 161.2 to 162.2 °C. This compound also yielded an IC50 on serotonin transporter of 10700 nM.

Turning to `COC(=O)[C@@H]1[C@H]2[C@@H](O)C[C@@H](C[C@H]1c1ccc(Cl)c(Cl)c1)N2C` (relative stereo) [Compound 30b, 2β-Carbomethoxy-3α-(3,4-dichlorophenyl)-7α-hydroxy-8-methyl-8-azabicyclo{3.2.1}octane], the melting point was 121 to 123 °C. Also, on serotonin transporter, the 50% inhibitory concentration (IC50) stood at 991 nM.

As to `COC(=O)[C@@H]1[C@H]2C[C@H](O)[C@@H](C[C@H]1OC(c1ccc(F)cc1)c1ccc(F)cc1)N2C` (relative stereo) [Compound 32a, 2β-Carbomethoxy-3α-bis(4-fluorophenyl)methoxy-6β-hydroxy-8-methyl-8-azabicyclo{3.2.1}octane], the IC50 at serotonin transporter came out at 4850 nM.

Compound `COC(=O)[C@@H]1[C@H]2[C@H](O)C[C@@H](C[C@H]1OC(c1ccc(F)cc1)c1ccc(F)cc1)N2C` (relative stereo) [Compound 32b, 2β-Carbomethoxy-3α-bis(fluorophenyl)methoxy-7β-hydroxy-8-methyl-8-azabicyclo{3.2.1}octane] showed a melting point of 150 to 152 °C. The compound further showed an IC50 on serotonin transporter of 9560 nM.

With `COC(=O)C1C(c2ccc(Cl)c(Cl)c2)CC2CC(O)C1N2C` (single isomer, unassigned) [(1R)-15a], the IC50 on dopamine transporter (setting [1]) was 265 to 2690 nM; at serotonin transporter, 139 nM. The SERT/DAT on dopamine transporter was found to be 0.05.

On to `COC(=O)C1C(c2ccc(Cl)c(Cl)c2)CC2CC(O)C1N2C` (single isomer, unassigned) [(1S)-15a], for which the results for the IC50 on dopamine transporter (setting [1]) and at serotonin transporter were 0.3 to 7.4 nM and 15 nM, respectively. On dopamine transporter (compared with 13a), the “fold more selective (DAT vs SERT) than 13a” value is 25 fold. Also, the SERT/DAT at dopamine transporter came to 50.

As to `COC(=O)C1C(c2ccc(Cl)c(Cl)c2)CC2CC(O)C1N2C` (single isomer, unassigned) [Compound (1R)-18a], the IC50 at dopamine transporter (setting [1]) was in the range of 265 to 2690 nM.

On dopamine transporter (setting [1]), `COC(=O)C1C(c2ccc(Cl)c(Cl)c2)CC2CC(O)C1N2C` (single isomer, unassigned) [Compound (1S)-18a] registered an IC50 of 0.3 to 7.4 nM. Also, the “fold more selective (DAT vs SERT) than 16a” value on dopamine transporter (compared with 16a) came to 22 fold. Further, the “fold more selective (DAT vs SERT) than (1S)-15a” value at dopamine transporter (compared with (1S)-15a) is reported as 32 fold.

For the compound `COC(=O)C1=C(c2ccc(Cl)c(Cl)c2)C[C@H]2C[C@H](O)[C@@H]1N2C` [(1R)-8a, (1R)-2-Carbomethoxy-3-(3,4-dichlorophenyl)-7β-hydroxy-8-methyl-8-azabicyclo{3.2.1}oct-2-ene], the IC50 at dopamine transporter (setting [1]) is 265 to 2690 nM; on serotonin transporter, 1590 nM.

At serotonin transporter, `COC(=O)C1=C(c2ccc(Cl)c(Cl)c2)C[C@@H]2C[C@@H](O)[C@H]1N2C` [(1S)-8a, (1S)-2-Carbomethoxy-3-(3,4-dichlorophenyl)-7β-hydroxy-8-methyl-8-azabicyclo{3.2.1}oct-2-ene] registered an IC50 of 5370 nM.

Consider `COC(=O)C1=C(c2ccc(Cl)c(Cl)c2)CC2CCC1N2C` (stereo not shown) [Compound 6a, reference compound], for which the results for the IC50 at dopamine transporter (setting [1]) and on serotonin transporter were 1.16 nM and 867 nM, respectively. In addition, the SERT/DAT at dopamine transporter was 747.

`COC(=O)C1=C(c2ccc3ccccc3c2)CC2CCC1N2C` (stereo not shown) [Compound 6b, reference compound]: the IC50 stood at 2.94 nM at dopamine transporter (setting [1]) and 109 nM at serotonin transporter. In addition, on dopamine transporter, the SERT/DAT was determined as 37.

`COC(=O)C1=C(c2ccc(F)cc2)CC2CCC1N2C` (stereo not shown) [Compound 6c, reference compound]: the IC50 came out at 408 nM on dopamine transporter (setting [1]) and 7990 nM at serotonin transporter. On dopamine transporter, the SERT/DAT is recorded as 20.

As for `COC(=O)[C@H]1[C@@H](c2ccc(Cl)c(Cl)c2)C[C@@H]2CC[C@H]1N2C` [Compound 13a, (1R)-3β-(3,4-di-chlorophenyl)-tropane-2β-carboxylic acid methyl ester, reference compound], at dopamine transporter, the SERT/DAT is recorded as 2. The compound also came in with an IC50 at serotonin transporter of 2.47 nM.

`COC(=O)C1C(c2ccc3ccccc3c2)CC2CCC1N2C` (stereo not shown) [Compound 13b, reference compound]: the SERT/DAT at dopamine transporter is given as 5.

As for `COC(=O)[C@H]1[C@@H](c2ccc(F)cc2)C[C@@H]2CC[C@H]1N2C` [Compound 13c, (1R)-3β-(4-fluorophenyl)tropane-2β-carboxylic acid methyl ester, reference compound], the figures for the IC50 on dopamine transporter (setting [1]) and on serotonin transporter were 11 nM and 160 nM, respectively. Further, at dopamine transporter, the SERT/DAT was 15.

In the case of `COC(=O)[C@@H]1[C@H]2CC[C@@H](C[C@H]1c1ccc(Cl)c(Cl)c1)N2C` [Compound 16a, reference compound], the IC50 at dopamine transporter (monkey caudate-putamen, read-out: IC50 (nM) DAT) was found to be 0.38 nM. In addition, the SERT/DAT at dopamine transporter is 73.

For the compound `COC(=O)C1C(c2ccc(Cl)c(Cl)c2)CC2C[C@@H](O)C1N2C` (stereo partly shown) [Compound 33], the “potency at the DAT relative to cocaine” value on dopamine transporter (compared with cocaine) was “almost twice as potent as cocaine”. At serotonin transporter, this compound yielded an IC50 of 533 nM.

In the case of `COC(=O)C1C(c2ccccc2)CC2[C@@H](O)CC1N2C` (stereo partly shown) [Compound 34], the “inhibition of {3H}WIN 35,428 binding, result in words” value at dopamine transporter (monkey caudate-putamen) was “inactive”. At serotonin transporter, the IC50 was above 20000 nM.
